Laboratory results published in US5602156A, “Method for inhibiting metalloproteinase expression” (The United States of America as represented by the …, priority 1994, dated 1997).
“Also recorded” adds a separate entry of the source.

Tests used:
phospholipase C-γ = conditions: cited from earlier work
arachidonic acid release = conditions: cited from earlier work
MMP-2 [1] = assay: Gelatin zymography of conditioned media from human cancer cell lines (gelatinase activity); type: cell-based
Procedure: (§1) Conditioned media for zymogram and Western blot analysis were produced under serum-free conditions. Cells (2 million) were plated in 25 cm^2 flasks in serum-containing medium and cultured overnight. Serum-containingmedium was removed and the cell monolayers were washed twice with DMEM/ITS (DMEM containing insulin (5 μg/mL), transferrin (5 μg/mL), and selenium (5 ng/mL)). The resultant cells were fed with 3 mL of DMEM/ITS and additives as described in the Examples for two 24 hour periods. Conditioned media samples were collected at 24 hours and cells were refed with fresh DMEM/ITS containing the described additives for an additional 24 hours. Conditioned media samples were centrifuged to remove cells and debris then frozen at -20° C. until use. Freeze and thaw cycles of the conditioned media were limited to no more than two.
Quantitation of the effect was evaluated by laser densitometry of the resultant zymograms.
Aliquots of conditioned medium (15 μL) were electrophoresed on gelatin-containing 10% PAGE gels under nonreducing but denaturing conditions. These conditions allow the different gelatin-degrading species (MMPs) to separate by size. […] Bands of clearing, seen after Coomassie blue staining correspond to areas of gelatinase activity.
OVCAR3 conditioned media samples were concentrated 10-fold prior to zymography.
Known concentrated conditioned medium from HT1080 cells was used for identification of the gelatinase species as marked in FIG. 1A: 92 kDa, gelatinase B/MMP-9; 72 kDa, gelatinase A/MMP-2 latent form; 65 kDa intermediate and 62 kDa activated forms of MMP-2. The activated form of MMP-2 results from cleavage of the amino terminal domain.
Lane 1 corresponds to cells treated only with 0.05% DMSO as a control.
Quantitation of the zymograms in FIGS. 1A-1C were carded out using laser densitometry.
The effect of structural analogs on the gelatinase activity of A2058 cells was similarly evaluated.

[2] = tested on: receptor-operated and voltage-gated calcium influx; conditions: cited from earlier work
[3] = tested on: gelatinase activity of the metalloproteinases; conditions: EDTA in incubation buffer; shown by others; cited from earlier work
[4] = tested on: gelatinase activity of the metalloproteinases; assay: Zymogram slices incubated with compound 1 or calcium chelators in the activating buffer (direct inhibition of enzyme); type: biochemical, human; conditions: 10 mM chelator in incubation buffer; data not shown
Procedure: See, Felder, et al., J. Pharm. Exp. Therapeut. 257:967-971 (1991) and unpublished observations by the inventors.
Gelatin zymography was carded out using control conditioned media from A2058 cells and HT1080 cells in the absence of compound 1. Zymogram slices were incubated in low salt collagenase buffer with control (DMSO 0.1%), an inhibitory dose of compound 1 (20 μM), or the calcium chelators EGTA (10 mM) and EDTA (10 mM). […] See, Brown, et al., Cancer Res. 50:6184-6191 (1990). […] Lane 1 for each of the zymograms corresponds to A2058 while lane 2 corresponds to HT1080.

[5] = tested on: interstitial collagenase, MMP-1; conditions: human melanoma and fibrosarcoma cells; cited from earlier work
MMP-2 [6] = conditions: cited from earlier work; for MMP-2 induction/inhibition: human melanoma and fibrosarcoma cells
MMP-2 [7] = assay: Gelatin zymography of A2058 cells, compound 1 with or without TGF-β1 (densitometry); type: cell-based, human; conditions: TGF-β1 alone (0 hr compound 1), control band = 100%
Procedure: as §1
(§2) A2058 human melanoma cells, human HT1080 fibrosarcoma cells, and OVCAR3 human ovarian cancer cells were incubated with increasing concentrations of compound 1 (0.2-20 μM) or DMSO control (0.05%) and subjected to gelatin zymography. Aliquots of conditioned medium (15 μL) were electrophoresed on gelatin-containing 10% PAGE gels under nonreducing but denaturing conditions. These conditions allow the different gelatin-degrading species (MMPs) to separate by size. The enzymes renature after removal of the SDS by incubation of the gel with 2.5 % Triton X-100, and degrade the gelatin substrate present in the polyacrylamide gel upon overnight incubation in low salt collagenase buffer. Bands of clearing, seen after Coomassie blue staining correspond to areas of gelatinase activity.
(§3) A2058 and HT1080 cells were incubated with compound 1 (2 μM), with or without TGF-β1 (5 ng/mL) for 24 and 48 hours prior to harvest of conditioned media. Aliquots were subjected to gelatin zymography as described in Example 1. Known concentrated conditioned medium from HT1080 cells was used for identification of the gelatinase species (92 kDa, gelatinase B/MMP-9; 72 kDa, gelatinase A/MMP-2 latent form; 65 kDa intermediate and 62 kDa activated forms of MMP-2).
(§4) Lane 1 is the control resulting from treatment of the cells with 0.1% DMSO. Lanes 2 and 3 correspond to those cells which are treated with 2 μM compound 1 in the absence of TGF-β1 for 24 and 48 hours, respectively. Lane 4 corresponds to cells which have been treated with TGF-β1 in the absence of compound 1. Lane 5 corresponds to cells which have been treated with TGF-β1 for 48 hours with compound 1 being added to the incubation mixture for the final 24 hours. Lane 6 corresponds to cells which have been treated for 48 hours with both TGF-β1 and compound 1.
(§5) *The control band was defined as 100% gelatinase activity and the other
(§6) bands were normalized to it. Numbers reflect triplicate measurements from
(§7) each zymogram band of representative zymograms. Standard deviations, not

MMP-9 = assay: Gelatin zymography of HT1080 cells, compound 1 with or without TGF-β1 (densitometry), 92 kDa; type: cell-based, human; conditions: TGF-β alone (0 hr compound 1), control band = 100%
Procedure: as §1, §2, §3, §4, §5, §6, §7

MMP-2 [8] = assay: Gelatin zymography of HT1080 cells, compound 1 with or without TGF-β1 (densitometry); type: cell-based, human; conditions: TGF-β alone (0 hr compound 1), control band = 100%
Procedure: as §1, §2, §3, §4, §5, §6, §7

gelatinase activity = assay: Gelatin zymography of A2058 and HT1080 cells, compound 1 with or without TGF-β1 (results in words); type: cell-based, human; conditions: TGF-β1 (5 ng/mL) alone for 48 hr
Procedure: as §3, §4

## COc1ccc(CCCOC(Cn2ccnc2)c2ccc(OC)cc2)cc1 (stereo not shown) [Compound 2, reference compound]
Phospholipase C-γ
  tyrosine phosphorylation with activation of phospholipase C-γ: inhibited
Arachidonic acid release
  arachidonic acid release: inhibited
MMP-2 [1]; A2058, 10 μM (FIG. 1E)
  MMP-2 activity: reduced MMP-2 activity
MMP-2 [1]; zymograms of FIG. 1
  inhibition of MMP-2 gelatinase activity (FIG. 1): inhibition
[2]
  calcium influx inhibition: inhibited; also recorded: effective inhibitor of receptor-operated calcium channels with reactivity against some voltage-gated calcium channels

## O=C(O)CN(CCN(CC(=O)O)CC(=O)O)CC(=O)O [EDTA, ethylenediamine tetraacetic acid, reference compound]
[3]
  inhibition of gelatinolytic activity: inhibit gelatinolytic activity
[4]
  requirement for metal ion in the activation buffer: confirmed the requirement for metal ion (Ca^++) in the activation buffer

## O=C(O)CN(CCOCCOCCN(CC(=O)O)CC(=O)O)CC(=O)O [EGTA, ethylenebis(oxyethylenenitrilo)tetraacetic acid, reference compound]
[4]
  requirement for metal ion in the activation buffer: confirmed the requirement for metal ion (Ca^++) in the activation buffer

## CCCCCCCCCCCCCC(=O)OC1C(C)C2(O)C(C=C(CO)CC3(O)C(=O)C(C)=CC32)C2C(C)(C)C12OC(C)=O (stereo not shown) [TPA, 12-O-tetradecanoylphorbol-13-acetate, reference compound]
[5]
  MMP-1 induction/inhibition: induction of MMP-1
MMP-2 [6]
  MMP-2 induction/inhibition: inhibition of MMP-2

## TGF-β1: transforming growth factor-β1
MMP-2 [7]
  gelatinase activity, 65 + 62 kDa: 0%
  gelatinase activity, 72 kDa: 68%
[5]
  MMP-1 induction/inhibition: inhibition of the interstitial collagenase, MMP-1
MMP-9
  gelatinase activity, 92 kDa: 64%
MMP-2 [8]
  gelatinase activity, 65 + 62 kDa: 192%
  gelatinase activity, 72 kDa: 47%
MMP-2 [6]; cell type not stated
  production of MMP-2 by stimulation of RNA expression: stimulate production of MMP-2 by stimulation of RNA expression
MMP-2 [6]
  MMP-2 induction/inhibition: induction of MMP-2
Gelatinase activity
  gelatinase activity: increased gelatinase activity
